Measurements as given in patent EP0604667A1, “TRANEXAMIC ACID DERIVATIVE AND DERMATOLOGIC PREPARATION CONTAINING THE SAME” (SHISEIDO COMPANY LIMITED, priority 1992, dated 1994).

How the values were obtained:
[1] = system: deposition of melanin pigmentation; test: Examination for depigmentation effect: lotion applied to skin after sunlight exposure, judged by the subjects; assay type: in vivo; conditions: for DEPIGMENTATION EFFECT / DEPI[…]: lotion with 1.0 weight% compound; for effect to prevent the deposition of melanin pigmentation after the skin was exposed to the sunlight: in words, text summary of the tables, test lotions compared with hydroquinone, tranexamic acid and no compound
Method: 60 subjects were disposed under sunlight for 4 hours in summer (2 hours × 2 days). The lotions were applied to skin of medial brachia for once in each morning and evening from 5 days after the day when the skin was exposed to the sun light for eight weeks. The one group consists of 10 subjects and six groups were given for the examination in accordance with the following prescriptions. […] The aqueous phase and the alcohol phase were prepared respectively, and both phase were mixed and dissolved. […] X: The number of subjects who judged the result was "extremely effective" and "effective" were less than 30 %. TABLE 1 Depigmentation effect was examined by using the following external preparations for skin in accordance with the above described condition. […] The alcohol phase and aqueous phase were prepared respectively, and both phase were mixed and dissolved. TABLE 3 Depigmentation effect was examined by using the following external preparations for skin in accordance with the above described condition. […] The alcohol phase and aqueous phase were prepared respectively, and both phase were mixed and dissolved.

face of subjects = test: Examination for skin care effect: half-face application against comparison 1, judged by the subjects; assay type: in vivo, women
Method: One group of subjects consists of ten women and 3 groups of the subjects were given for the examination.
The effectiveness of three items (moisturising effect, texture of skin surface, maintenance (one day) of moisturising effect) were evaluated according to the following standards.
Ⓞ: The number of subjects who judged the result was "extremely effective" and "effective" were not less than 80 %. ○: The number of subjects who judged the result was "extremely effective" and "effective" were from 50% to 80%. △: The number of subjects who judged the result was "extremely effective" and "effective" were from 30% to 50%. X: The number of subjects who judged the result was "extremely effective " and "effective" were less than 30%.
Skin care effect of the examples was examined in accordance with the above-mentioned condition.

[2] = TABLE 5, same condition as TABLE 1
[3] = TABLE 6, lotion with 1.0 weight% compound, same condition as TABLE 2
[4] = TABLE 1, skin of medial brachia, morning and evening for eight weeks from 5 days after sunlight exposure (4 hours), 10 subjects per group
[5] = TABLE 3, same condition as TABLE 1
[6] = TABLE 2, lotion with 1.0 weight% compound on left half of face, every morning and night for two weeks, ten women per group
[7] = TABLE 2, maintenance (one day), lotion with 1.0 weight% compound on left half of face, every morning and night for two weeks, ten women per group
[8] = TABLE 4, lotion with 1.0 weight% compound, same condition as TABLE 2

Compound | DEPIGMENTATION EFFECT [1, 2] | DEPIGMENTATION EFFECT [1, 4] | effect to prevent the deposition of melanin pigmentation after the skin was exposed to the sunlight [1] | MOISTURISING EFFECT (face of subjects; [6]) | TEXTURE OF SKIN SURFACE (face of subjects; [6]) | MAINTENANCE OF MOISTURISING EFFECT (face of subjects; [7]) | other results
4'-hydroxy phenyl trans-4-aminomethyl cyclohexane carboxylate hydrochloride [EXM.3-2] | Ⓞ (The number of subjects who judged the result was "extremely effective" and "effective" were not less than 80%.) |  |  |  |  |  | MAINTENANCE OF MOISTURISING EFFECT (face of subjects; [3]): Ⓞ (The number of subjects who judged the result was "extremely effective" and "effective" were not less than 80 %.); MOISTURISING EFFECT (face of subjects; [3]): Ⓞ (The number of subjects who judged the result was "extremely effective" and "effective" were not less than 80 %.); TEXTURE OF SKIN SURFACE (face of subjects; [3]): Ⓞ (The number of subjects who judged the result was "extremely effective" and "effective" were not less than 80 %.)
Oc1ccc(O)cc1 [COMP.2, hydroquinone, reference compound] |  |  |  |  |  |  | DEPI[…] [1, 4]: △ (The number of subjects who judged the result was "extremely effective" and "effective" were from 30% to 50%.); DEPI[…] [1, 5]: △ (The number of subjects who judged the result was "extremely effective" and "effective" were from 30% to 50%.); DEPI[…] [1, 2]: △ (The number of subjects who judged the result was "extremely effective" and "effective" were from 30% to 50%.)
NC[C@H]1CC[C@H](C(=O)O)CC1 [COMP.3, tranexamic acid] | △ (The number of subjects who judged the result was "extremely effective" and "effective" were from 30% to 50%.) |  |  |  |  |  | DEPIGMENTATION EFFECT [1, 5]: ○ (The number of subjects who judged the result was "extremely effective" and "effective" were from 50% to 80%.)
NC[C@H]1CC[C@H](C(=O)Oc2ccc(O)cc2C(=O)O)CC1 [EXM.1-1, 2-(trans-4-aminomethylcyclohexylcarbonyloxy)-5-hydroxy benzoic acid] |  | Ⓞ (The number of subjects who judged the result was "extremely effective" and "effective" were not less than 80%.) | excellent | Ⓞ (The number of subjects who judged the result was "extremely effective" and "effective" were not less than 80 %.) | Ⓞ (The number of subjects who judged the result was "extremely effective" and "effective" were not less than 80 %.) | Ⓞ (The number of subjects who judged the result was "extremely effective" and "effective" were not less than 80 %.) | 
NC[C@H]1CC[C@H](C(=O)Oc2ccc(O)c(C(=O)O)c2)CC1 [EXM.1-2, 5-(trans-4-aminomethylcyclohexylcarbonyloxy)-2-hydroxy benzoic acid] |  | Ⓞ (The number of subjects who judged the result was "extremely effective" and "effective" were not less than 80%.) | excellent | Ⓞ (The number of subjects who judged the result was "extremely effective" and "effective" were not less than 80 %.) | Ⓞ (The number of subjects who judged the result was "extremely effective" and "effective" were not less than 80 %.) | Ⓞ (The number of subjects who judged the result was "extremely effective" and "effective" were not less than 80 %.) | 
Cl.NC[C@H]1CC[C@H](C(=O)Oc2ccc(O)cc2C(=O)O)CC1 [EXM.1-3, 2-(trans-4-aminomethylcyclohexylcarbonyloxy)-5-hydroxy benzoic acid hydrochloride] |  | Ⓞ (The number of subjects who judged the result was "extremely effective" and "effective" were not less than 80%.) | excellent | Ⓞ (The number of subjects who judged the result was "extremely effective" and "effective" were not less than 80 %.) | Ⓞ (The number of subjects who judged the result was "extremely effective" and "effective" were not less than 80 %.) | Ⓞ (The number of subjects who judged the result was "extremely effective" and "effective" were not less than 80 %.) | 
NC[C@H]1CC[C@H](C(=O)NC[C@H]2CC[C@H](C(=O)O)CC2)CC1 [EXM.2-1, Trans-4-(trans-4-aminomethylcyclohexanecarbonyl) aminomethyl cyclohexane carboxylic acid] |  |  |  |  |  |  | DEPIGMENTATION EFFECT [1, 5]: Ⓞ (The number of subjects who judged the result was "extremely effective" and "effective" were not less than 80%.); MAINTENANCE OF MOISTURISING EFFECT (face of subjects; [8]): Ⓞ (The number of subjects who judged the result was "extremely effective" and "effective" were not less than 80 %.); MOISTURISING EFFECT (face of subjects; [8]): Ⓞ (The number of subjects who judged the result was "extremely effective" and "effective" were not less than 80 %.); TEXTURE OF SKIN SURFACE (face of subjects; [8]): Ⓞ (The number of subjects who judged the result was "extremely effective" and "effective" were not less than 80 %.)
NC[C@H]1CC[C@H](C(=O)Oc2ccc(O)cc2)CC1 [EXM.3-1, 4'-hydroxy phenyl trans-4-aminomethyl cyclohexane carboxylate] | Ⓞ (The number of subjects who judged the result was "extremely effective" and "effective" were not less than 80%.) |  |  |  |  |  | MAINTENANCE OF MOISTURISING EFFECT (face of subjects; [3]): Ⓞ (The number of subjects who judged the result was "extremely effective" and "effective" were not less than 80 %.); MOISTURISING EFFECT (face of subjects; [3]): Ⓞ (The number of subjects who judged the result was "extremely effective" and "effective" were not less than 80 %.); TEXTURE OF SKIN SURFACE (face of subjects; [3]): Ⓞ (The number of subjects who judged the result was "extremely effective" and "effective" were not less than 80 %.)
